These are literature values, as cited in patent US20210196661A1, “METHOD FOR AMELIORATION OF INSULIN RESISTANCE” (priority 2019, published 2021).

For data set [1] the following is noted: in vivo.
In data set [2] the test system is integrated stress response (ISR). Conditions: mice.

`N[C@@H](Cc1cc(I)c(Oc2cc(I)c(O)c(I)c2)c(I)c1)C(=O)O` [T4, L-thyroxine]: the half life in data set [1] is 120 to 170 h.
As for `O=C(COc1ccc(Cl)cc1)NC1CCC(NC(=O)COc2ccc(Cl)cc2)CC1` (stereo not shown) [ISM], in data set [2], the age-related memory impairment result was “rapidly reverses”, the “levels of ATF4” value is listed as “decreases” and the “levels of phosphorylated eIF2a” value is “decreases”.
